Experimental data published in ChEMBL document CHEMBL1177792, “Pre-clinical characterization of aryloxypyridine amides as histamine H3 receptor antagonists: identification of candidates for clinical development” (Bioorg Med Chem Lett, 2010).
pIC50, pKi: −log10 of the molar value. Blank lines part the entries; values can stand above or below the molecule they belong to. The source made the active and inactive calls. No cut-off for these calls is given here.

What was measured:
Rattus norvegicus [1] = assay: Ex vivo receptor occupancy of histamine H3 receptor in Wistar rat brain at 10 mg/kg, po after 1 hr by autoradiography; assay type: functional
[2] = molecular target: T1, Voltage-gated inwardly rectifying potassium channel KCNH2 (Homo sapiens, UniProt Q12809); assay: Displacement of radiolabeled astemizole from human ERG
Histamine H3 receptor [3] = molecular target: T2, Histamine H3 receptor (Rattus norvegicus, UniProt Q9QYN8); assay: Antagonist activity at rat histamine H3 receptor expressed in human SK-N-MC cells assessed as inhibition of forskolin-induced cAMP accumulation after 6 hrs; assay type: functional, cell-based; details: read-out: pA2 (converted)
[4] = Drug level in Wistar rat brain at 10 mg/kg, po after 1 hr; assay type: ADME, organism-based; design: dose 10 mg/kg, route oral; details: read-out: Drug uptake
Histamine H3 receptor [5] = molecular target: T3, Histamine H3 receptor (Homo sapiens, UniProt Q9Y5N1); assay: Antagonist activity at human histamine H3 receptor expressed in human SK-N-MC cells assessed as inhibition of forskolin-induced cAMP accumulation after 6 hrs; assay type: functional, cell-based; details: read-out: pA2 (converted)
[6] = Volume of distribution at steady state in Sprague-Dawley rat at 1 mg/kg, iv and 10 mg/kg, po; assay type: ADME, organism-based; details: in vivo, read-out: Vdss
[7] = Clearance in Sprague-Dawley rat at 1 mg/kg, iv and 10 mg/kg, po; assay type: ADME, organism-based; details: in vivo
[8] = Metabolic stability in rat liver microsomes assessed as compound remaining after 30 mins; assay type: ADME, Microsome; details: read-out: Stability
[9] = Bioavailability in Sprague-Dawley rat at 1 mg/kg, iv and 10 mg/kg, po; assay type: ADME, organism-based; details: in vivo
hERG (KCNH2) = hERG (KCNH2) (Homo sapiens, UniProt Q12809); assay: Displacement of radiolabeled astemizole from human ERG at 10 uM; details: probe radiolabeled astemizole
[10] = molecular target: T1, Voltage-gated inwardly rectifying potassium channel KCNH2; assay: Inhibition of human ERG by patch clamp technique
[11] = Plasma concentration in Wistar rat at 10 mg/kg, po after 1 hr; assay type: ADME, organism-based; design: dose 10 mg/kg, route oral; details: read-out: Drug uptake
[12] = Half life in Sprague-Dawley rat at 1 mg/kg, iv and 10 mg/kg, po; assay type: ADME, organism-based; details: in vivo
[13] = Metabolic stability in human liver microsomes assessed as compound remaining after 30 mins; assay type: ADME, Microsome; details: read-out: Stability
Histamine H3 receptor [14] = molecular target: T3, Histamine H3 receptor; assay: Displacement of [125I]-iodoproxyfan from human recombinant histamine H3 receptor expressed in human SK-N-MC cells after 1 hr by scintillation counting; assay type: cell-based
Histamine H3 receptor [15] = molecular target: T2, Histamine H3 receptor; assay: Binding affinity to histamine H3 receptor in rat brain; assay type: tissue-based
Rattus norvegicus [16] = assay: Increase of wake duration in rat at 30 mg/kg, s.c.
Rattus norvegicus [17] = assay: Increase of histamine release in rat frontal cortex at 3 to 30 mg/kg, po measured up to 180 mins; assay type: functional, organism-based
Cytochrome P450 3A4 = Cytochrome P450 3A4 (Homo sapiens, UniProt P08684); assay: Inhibition of CYP3A4 at 10 uM; assay type: ADME
[18] = Bioavailability in Beagle dog at 1 mg/kg, iv and 5 mg/kg, po; assay type: ADME, organism-based, Canis lupus familiaris; details: in vivo
[19] = Permeability from basolateral to apical side of human Caco-2 cells; assay type: ADME, cell-based; details: read-out: permeability
[20] = Fraction unbound in rat plasma; assay type: ADME, cell-free
[21] = Volume of distribution at steady state in BALB/c mouse at 1 mg/kg, iv and 10 mg/kg, po; assay type: ADME, organism-based; details: in vivo, read-out: Vdss
[22] = Half life in BALB/c mouse at 1 mg/kg, iv and 10 mg/kg, po; assay type: ADME, organism-based; details: in vivo
[23] = Solubility in simulated gastric fluid; assay type: physicochemical
Rattus norvegicus [24] = assay: Ex vivo receptor occupancy of histamine H3 receptor in Wistar rat brain at 1 mg/kg, po after 60 mins by [3H]R-alpha-methylhistamine bingind autoradiography; assay type: functional
[25] = Bioavailability in BALB/c mouse at 1 mg/kg, iv and 10 mg/kg, po; assay type: ADME, organism-based; details: in vivo
[26] = Solubility in water; assay type: physicochemical
Cytochrome P450 2D6 = Cytochrome P450 2D6 (Homo sapiens, UniProt P10635); assay: Inhibition of CYP2D6 at 10 uM; assay type: ADME
[27] = Plasma concentration in Wistar rat at 1 mg/kg, po after 60 mins; assay type: ADME, organism-based; design: dose 1 mg/kg, route oral; details: read-out: Drug uptake
[28] = Volume of distribution at steady state in Beagle dog at 1 mg/kg, iv and 5 mg/kg, po; assay type: ADME, organism-based, Canis lupus familiaris; details: in vivo, read-out: Vdss
Cytochrome P450 2C9 = Cytochrome P450 2C9 (Homo sapiens, UniProt P11712); assay: Inhibition of CYP2C9 at 10 uM; assay type: ADME
[29] = Clearance in BALB/c mouse at 1 mg/kg, iv and 10 mg/kg, po; assay type: ADME, organism-based; details: in vivo
[30] = Half life in Beagle dog at 1 mg/kg, iv and 5 mg/kg, po; assay type: ADME, organism-based, Canis lupus familiaris; details: in vivo
[31] = Clearance in Beagle dog at 1 mg/kg, iv and 5 mg/kg, po; assay type: ADME, organism-based, Canis lupus familiaris; details: in vivo
[32] = Permeability from apical to basolateral side of human Caco-2 cells; assay type: ADME, cell-based; details: read-out: permeability

T2 sequence (Q9QYN8 whole entry): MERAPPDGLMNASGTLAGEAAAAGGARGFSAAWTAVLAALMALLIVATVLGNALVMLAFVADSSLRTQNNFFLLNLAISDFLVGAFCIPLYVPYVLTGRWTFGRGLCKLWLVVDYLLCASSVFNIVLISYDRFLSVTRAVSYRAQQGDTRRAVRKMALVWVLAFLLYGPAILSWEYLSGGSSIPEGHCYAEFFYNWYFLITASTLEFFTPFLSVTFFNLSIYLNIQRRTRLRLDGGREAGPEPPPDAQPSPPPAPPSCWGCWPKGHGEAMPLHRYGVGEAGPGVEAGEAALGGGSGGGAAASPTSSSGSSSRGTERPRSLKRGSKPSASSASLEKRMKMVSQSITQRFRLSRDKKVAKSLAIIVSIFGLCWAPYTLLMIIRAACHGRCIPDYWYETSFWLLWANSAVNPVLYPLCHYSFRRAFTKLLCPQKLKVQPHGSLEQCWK
T3 sequence (Q9Y5N1 whole entry): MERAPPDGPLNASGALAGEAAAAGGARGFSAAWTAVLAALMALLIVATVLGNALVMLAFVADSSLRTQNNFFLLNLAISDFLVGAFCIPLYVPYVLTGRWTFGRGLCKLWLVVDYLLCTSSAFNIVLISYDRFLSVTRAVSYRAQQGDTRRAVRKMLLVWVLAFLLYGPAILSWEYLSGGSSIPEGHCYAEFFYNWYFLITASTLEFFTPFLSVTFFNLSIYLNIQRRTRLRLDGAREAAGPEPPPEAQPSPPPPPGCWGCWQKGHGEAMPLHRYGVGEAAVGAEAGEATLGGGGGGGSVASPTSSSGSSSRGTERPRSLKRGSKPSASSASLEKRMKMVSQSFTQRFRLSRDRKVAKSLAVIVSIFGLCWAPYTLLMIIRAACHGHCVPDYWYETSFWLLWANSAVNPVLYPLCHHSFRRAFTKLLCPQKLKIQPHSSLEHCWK
hERG (KCNH2), sequence (Q12809 whole entry): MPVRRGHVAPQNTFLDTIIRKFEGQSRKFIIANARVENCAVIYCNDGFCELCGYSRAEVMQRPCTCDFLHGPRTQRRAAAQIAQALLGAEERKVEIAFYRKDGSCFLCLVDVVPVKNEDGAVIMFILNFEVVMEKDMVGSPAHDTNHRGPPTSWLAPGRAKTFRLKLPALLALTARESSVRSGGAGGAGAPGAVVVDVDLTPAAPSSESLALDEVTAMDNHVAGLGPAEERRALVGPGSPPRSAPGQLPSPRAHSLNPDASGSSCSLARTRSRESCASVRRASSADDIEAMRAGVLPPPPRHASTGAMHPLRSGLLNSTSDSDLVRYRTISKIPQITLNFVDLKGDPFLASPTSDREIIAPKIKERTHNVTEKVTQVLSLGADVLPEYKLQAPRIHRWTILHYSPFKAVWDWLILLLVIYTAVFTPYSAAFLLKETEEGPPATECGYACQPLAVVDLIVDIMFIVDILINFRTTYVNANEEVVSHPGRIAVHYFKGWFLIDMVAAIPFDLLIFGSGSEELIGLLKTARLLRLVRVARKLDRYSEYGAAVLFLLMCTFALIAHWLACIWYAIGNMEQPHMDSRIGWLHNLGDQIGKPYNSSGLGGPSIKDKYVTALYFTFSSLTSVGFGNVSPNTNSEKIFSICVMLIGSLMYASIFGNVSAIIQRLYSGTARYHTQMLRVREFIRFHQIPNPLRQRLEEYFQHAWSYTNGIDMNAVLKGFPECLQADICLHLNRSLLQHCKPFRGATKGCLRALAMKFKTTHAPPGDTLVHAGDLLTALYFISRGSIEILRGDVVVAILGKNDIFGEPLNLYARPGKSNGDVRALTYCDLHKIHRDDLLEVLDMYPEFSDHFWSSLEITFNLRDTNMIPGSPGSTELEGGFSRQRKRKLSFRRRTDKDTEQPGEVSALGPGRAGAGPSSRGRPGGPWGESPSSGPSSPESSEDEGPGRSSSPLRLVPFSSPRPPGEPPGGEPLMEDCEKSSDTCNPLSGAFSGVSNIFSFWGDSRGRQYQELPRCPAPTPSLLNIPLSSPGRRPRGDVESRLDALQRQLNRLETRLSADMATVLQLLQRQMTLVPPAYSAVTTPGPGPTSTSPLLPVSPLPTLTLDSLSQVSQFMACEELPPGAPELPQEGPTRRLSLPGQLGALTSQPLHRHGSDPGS
T1 sequence (Q12809 whole entry): as above
Cytochrome P450 2D6, sequence (P10635 whole entry): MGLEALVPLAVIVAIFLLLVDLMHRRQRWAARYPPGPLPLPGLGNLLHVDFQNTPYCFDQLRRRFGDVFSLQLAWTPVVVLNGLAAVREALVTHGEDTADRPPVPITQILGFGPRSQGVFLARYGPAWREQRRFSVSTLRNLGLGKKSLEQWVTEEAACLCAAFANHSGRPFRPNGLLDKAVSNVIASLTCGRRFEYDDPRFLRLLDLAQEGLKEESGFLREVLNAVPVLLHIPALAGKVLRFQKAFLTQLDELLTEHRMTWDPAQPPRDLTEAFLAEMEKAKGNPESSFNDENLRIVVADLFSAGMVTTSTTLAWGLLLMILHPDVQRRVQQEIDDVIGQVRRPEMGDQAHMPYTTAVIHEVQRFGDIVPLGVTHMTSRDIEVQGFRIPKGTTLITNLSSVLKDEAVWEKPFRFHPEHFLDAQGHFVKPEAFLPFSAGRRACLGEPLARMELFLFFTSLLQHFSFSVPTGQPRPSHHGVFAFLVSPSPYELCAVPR
Cytochrome P450 2C9, sequence (P11712 whole entry): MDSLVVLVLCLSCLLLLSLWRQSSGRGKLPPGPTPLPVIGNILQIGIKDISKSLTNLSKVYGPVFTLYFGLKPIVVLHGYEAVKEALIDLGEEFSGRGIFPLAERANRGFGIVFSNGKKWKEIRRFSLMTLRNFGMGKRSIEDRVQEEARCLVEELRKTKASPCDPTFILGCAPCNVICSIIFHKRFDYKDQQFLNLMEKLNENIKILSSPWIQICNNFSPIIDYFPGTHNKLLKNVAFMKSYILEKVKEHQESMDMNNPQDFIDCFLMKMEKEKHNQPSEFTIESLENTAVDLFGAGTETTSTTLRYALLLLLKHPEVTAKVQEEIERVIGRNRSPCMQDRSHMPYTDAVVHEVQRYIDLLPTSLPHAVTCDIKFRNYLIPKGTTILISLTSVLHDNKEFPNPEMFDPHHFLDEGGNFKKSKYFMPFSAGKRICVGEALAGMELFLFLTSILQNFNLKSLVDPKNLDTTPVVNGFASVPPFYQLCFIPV
Cytochrome P450 3A4, sequence (P08684 whole entry): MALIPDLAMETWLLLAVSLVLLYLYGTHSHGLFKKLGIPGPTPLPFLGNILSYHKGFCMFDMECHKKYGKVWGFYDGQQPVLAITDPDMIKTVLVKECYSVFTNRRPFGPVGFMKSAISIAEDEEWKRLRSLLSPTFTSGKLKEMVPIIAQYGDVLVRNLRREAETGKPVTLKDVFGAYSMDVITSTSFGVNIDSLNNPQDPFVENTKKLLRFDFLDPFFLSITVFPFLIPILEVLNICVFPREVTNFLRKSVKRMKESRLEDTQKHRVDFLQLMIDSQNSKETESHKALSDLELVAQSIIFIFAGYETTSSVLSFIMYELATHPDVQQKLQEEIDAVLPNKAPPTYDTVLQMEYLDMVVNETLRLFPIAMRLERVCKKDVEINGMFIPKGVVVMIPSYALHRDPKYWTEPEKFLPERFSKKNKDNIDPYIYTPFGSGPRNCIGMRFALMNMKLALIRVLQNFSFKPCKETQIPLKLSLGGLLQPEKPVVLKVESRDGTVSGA

Compound: O=C(c1ccc(Oc2cccc(Cl)c2)nc1)N1CCCN(C2CCC2)CC1
- Activity (Rattus norvegicus [1]): 96%
- pIC50 [2]: < 5.00
- Kb (Histamine H3 receptor [3]): 5.01 nM
- concentration at 1 h [4]: 1720 nM
- Kb (Histamine H3 receptor [5]): 0.871 nM
- Vd [6]: 5 L/kg
- clearance [7]: 104 mL/min/kg
- remaining at 0.5 h [8]: 58%
- bioavailability [9]: 19%
- inhibition at 10 µM (hERG (KCNH2)): 28%
- pIC50 [10]: 5.80
- concentration at 1 h [11]: 630 nM
- half-life [12]: 60 min
- remaining at 0.5 h [13]: 98%

Compound: CN1CCCN(C(=O)c2ccc(Oc3ccc(F)cc3)nc2)CC1
- pKi (Histamine H3 receptor [14]): 6.07

Compound: CSc1ccc(Oc2ccc(C(=O)N3CCN(C(C)C)CC3)cn2)cc1
- pKi (Histamine H3 receptor [14]): 6.64

Compound: O=C(c1cc(Oc2ccccc2)ccn1)N1CCCN(C2CCC2)CC1
- pKi (Histamine H3 receptor [14]): 7.39

Compound: O=C(c1ccc(Oc2ccc(Cl)cc2)nc1)N1CCCN(C2CCC2)CC1
- Activity (Rattus norvegicus [1]): 95%
- pKi (Histamine H3 receptor [15]): 7.64
- pIC50 [2]: < 5.00
- Kb (Histamine H3 receptor [3]): 3.98 nM
- concentration at 1 h [4]: 2620 nM
- Vd [6]: 3 L/kg
- clearance [7]: 36 mL/min/kg
- pKi (Histamine H3 receptor [14]): 7.23
- remaining at 0.5 h [8]: 63%
- bioavailability [9]: 62%
- inhibition at 10 µM (hERG (KCNH2)): 23%
- pIC50 [10]: 5.85
- concentration at 1 h [11]: 4470 nM
- half-life [12]: 78 min
- remaining at 0.5 h [13]: 95%

Compound: CC(C)N1CCN(C(=O)c2ccc(Oc3ccc(Cl)c(Cl)c3)nc2)CC1
- pKi (Histamine H3 receptor [14]): 7.11

Compound: O=C(c1ccc(Oc2ccc(F)cc2)nc1)N1CCN(C2CC2)CC1
- pKi (Histamine H3 receptor [14]): 6.37

Compound: CC(C)N1CCCN(C(=O)c2ccc(Oc3ccc(Cl)c(Cl)c3)nc2)CC1
- pKi (Histamine H3 receptor [14]): 7.74

Compound: O=C(c1ccc(Oc2ccccc2Cl)nc1)N1CCCN(C2CCC2)CC1
- pKi (Histamine H3 receptor [14]): 7.77

Compound: CC(C)N1CCN(C(=O)c2ccc(Oc3cccc(C#N)c3)nc2)CC1
- pKi (Histamine H3 receptor [14]): 6.96

Compound: CC(C)N1CCN(C(=O)c2ccc(Oc3ccccc3Cl)nc2)CC1
- pKi (Histamine H3 receptor [14]): 7.51

Compound: O=C(c1ccc(Sc2ccc(F)cc2)nc1)N1CCCN(C2CCC2)CC1
- pKi (Histamine H3 receptor [14]): 7.54

Compound: O=C(c1ccc(Oc2cccc(Cl)c2)nc1)N1CCCN(C2CC2)CC1
- pKi (Histamine H3 receptor [15]): 7.12
- Kb (Histamine H3 receptor [3]): 11.5 nM
- concentration at 1 h [4]: 300 nM
- pKi (Histamine H3 receptor [14]): 7.77
- remaining at 0.5 h [8]: 41%
- concentration at 1 h [11]: 310 nM
- remaining at 0.5 h [13]: 70%

Compound: CC(C)N1CCN(C(=O)c2ccc(Oc3cccc(Cl)c3)nc2)CC1
- pKi (Histamine H3 receptor [14]): 7.00

Compound: O=C(c1cccc(Oc2ccc(Cl)c(Cl)c2)n1)N1CCCN(C2CCC2)CC1
- pKi (Histamine H3 receptor [14]): 6.80

Further lines, with some results ahead:

- pKi (Histamine H3 receptor [15]): 7.96
- Activity (Cytochrome P450 3A4): Not Active
- bioavailability [18]: 29%
- Kb (Histamine H3 receptor [3]): 9.55 nM
- Papp B→A [19]: 25 ×10⁻⁶ cm/s
- fraction unbound [20]: 0.79
- concentration at 1 h [4]: 960 nM
- Kb (Histamine H3 receptor [5]): 0.407 nM
- Vd [21]: 4.4 L/kg
- half-life [22]: 48 min
- Vd [6]: 1.4 L/kg
- solubility [23]: > 1000 µg/mL
- clearance [7]: 41 mL/min/kg
- pKi (Histamine H3 receptor [14]): 8.74
- remaining at 0.5 h [8]: 87%
- bioavailability [25]: 21%
- solubility [26]: > 100 mg/mL
- Activity (Cytochrome P450 2D6): Not Active
- concentration at 1 h [27]: 160 ng/mL
- Vd [28]: 1.6 L/kg
- Activity (Cytochrome P450 2C9): Not Active
- bioavailability [9]: 89%
- clearance [29]: 97 mL/min/kg
- concentration at 1 h [11]: 6020 nM
- half-life [12]: 42 min
- remaining at 0.5 h [13]: 99%
- half-life [30]: 54 min
- clearance [31]: 21 mL/min/kg
- Papp A→B [32]: 77 ×10⁻⁶ cm/s
Compound: N#Cc1cccc(Oc2ccc(C(=O)N3CCCN(C4CCC4)CC3)cn2)c1
- Activity (Rattus norvegicus [1]): 87%
- Activity (Rattus norvegicus [16]): Active
- Activity (Rattus norvegicus [17]): Active
- pIC50 [2]: < 5.00
- Activity (Rattus norvegicus [24]): 90%
- inhibition at 10 µM (hERG (KCNH2)): 23%
- pIC50 [10]: < 5.00

- pKi (Histamine H3 receptor [14]): 8.26
Compound: O=C(c1ccc(Oc2cccc(F)c2)cn1)N1CCCN(C2CCC2)CC1

- pKi (Histamine H3 receptor [14]): 7.80
Compound: O=C(c1ccc(Oc2cccc(F)c2)nc1)N1CCCN(C2CC2)CC1

- pKi (Histamine H3 receptor [14]): 8.43
Compound: O=C(c1ccc(Sc2ccccc2)cn1)N1CCCN(C2CCC2)CC1

- pKi (Histamine H3 receptor [14]): 8.00
Compound: O=C(c1ccc(Oc2ccccc2)nc1)N1CCCN(C2CC2)CC1

- Kb (Histamine H3 receptor [5]): 0.537 nM
- pKi (Histamine H3 receptor [14]): 8.37
Compound: O=C(c1ccc(Oc2ccccc2F)cn1)N1CCCN(C2CCC2)CC1

- concentration at 1 h [4]: 1960 nM
- Vd [6]: 4.2 L/kg
- clearance [7]: 118 mL/min/kg
- pKi (Histamine H3 receptor [14]): 8.39
- remaining at 0.5 h [8]: 86%
- bioavailability [9]: 11%
- concentration at 1 h [11]: 360 nM
- half-life [12]: 48 min
- remaining at 0.5 h [13]: 99%
Compound: O=C(c1ccc(Oc2cccc(F)c2)nc1)N1CCCN(C2CCC2)CC1
- Activity (Rattus norvegicus [1]): 88%
- pIC50 [2]: < 5.00
- inhibition at 10 µM (hERG (KCNH2)): 0%
- pIC50 [10]: 5.27

- pKi (Histamine H3 receptor [14]): 8.26
Compound: O=C(c1ccc(Oc2ccc(Cl)cc2)cn1)N1CCCN(C2CCC2)CC1
